Experimental data reported in ChEMBL document CHEMBL5236634, “Membrane-Targeting Neolignan-Antimicrobial Peptide Mimic Conjugates to Combat Methicillin-Resistant Staphylococcus aureus (MRSA) Infections” (J Med Chem, 2022).
Active and inactive are the calls of the source. No cut-off for these calls is given here.

How the values were obtained:
[1] = Toxicity in BALB/c mouse assessed as survival rate at 10 to 50 mg/kg, ip administered as single dose and measured for 7 consecutive days; format: organism-based; details: in vivo, dose 10-50 mg/kg, time 7 day
[2] = Selectivity index, ratio of HC50 for hemolytic activity in sheep RBC to MIC for antibacterial activity against Staphylococcus aureus ATCC 29213; format: toxicity; details: sheep red blood cells
Staphylococcus aureus [3] = test: Inhibition of biofilm formation in Staphylococcus aureus ATCC 29213 at 64 ug/ml incubated for 24 hrs by crystalline violet staining based analysis; format: functional
Staphylococcus aureus [4] = test: Antibacterial activity against methicillin-resistant Staphylococcus aureus 15 incubated for 16 to 18 hrs in presence of phosphatidylethanolamine by checkerboard microdilution assay; format: functional, organism-based; details: time 16-18 hrs
[5] = Toxicity in BALB/c mouse assessed as effect on urea level at 50 mg/kg, ip administered as single dose and measured after 24 hrs; format: organism-based; details: in vivo
Staphylococcus aureus [6] = test: Antibacterial activity against Staphylococcus aureus ATCC 29213 assessed as inhibition of bacterial growth incubated for 16 to 20 hrs by CLSI based microdilution method; format: functional; details: time 16-20 hrs
Staphylococcus aureus [7] = test: Bactericidal activity against methicillin-resistant Staphylococcus aureus 15 at 4 to 8 times MIC measured after 3 hrs by time kill assay; format: functional
Staphylococcus aureus [8] = test: Inhibition of biofilm formation in methicillin-resistant Staphylococcus aureus 15 at 64 ug/ml incubated for 24 hrs by crystalline violet staining based analysis; format: functional
Escherichia coli = test: Antibacterial activity against Escherichia coli ATCC 25922 assessed as inhibition of bacterial growth incubated for 16 to 20 hrs by CLSI based microdilution method; format: functional; details: time 16-20 hrs
[9] = Toxicity in BALB/c mouse assessed as effect on platelet count at 50 mg/kg, ip administered as single dose and measured after 24 hrs; format: organism-based; details: in vivo
[10] = Stability in 50% plasma (unknown origin) assessed as change in MBC against methicillin-resistant Staphylococcus aureus 15 measured for 6 hrs; format: ADME, cell-free
Staphylococcus aureus [11] = test: Antibacterial activity against methicillin-resistant Staphylococcus aureus 15 infected in BALB/c mouse sepsis model assessed as reduction in bacterial load in spleen at 10 mg/kg, ip measured after 48 hrs; format: functional, organism-based
[12] = Toxicity in BALB/c mouse assessed as pathological changes in spleen at 50 mg/kg, ip administered as single dose and measured after 24 hrs by H & E staining based analysis; format: organism-based; details: in vivo
Staphylococcus aureus [13] = test: Antibiofilm activity against Staphylococcus aureus ATCC 29213 assessed as reduction in live bacteria in biofilm incubated for 24 hrs by crystal violet staining based analysis; format: functional, organism-based; details: dose 0-128 µg/ml
Staphylococcus aureus [14] = test: Inhibition of biofilm formation in methicillin-resistant Staphylococcus aureus 15 assessed as destruction of formed biofilm at 128 ug/ml incubated for 24 hrs by crystal violet staining based analysis relative to control; format: functional
Enterococcus faecalis = test: Antibacterial activity against Enterococcus faecalis ATCC 29212 assessed as inhibition of bacterial growth incubated for 16 to 20 hrs by CLSI based microdilution method; format: functional; details: time 16-20 hrs
Salmonella enterica = test: Antibacterial activity against Salmonella enterica H9812 assessed as inhibition of bacterial growth incubated for 16 to 20 hrs by CLSI based microdilution method; format: functional; details: time 16-20 hrs
Staphylococcus aureus [15] = test: Inhibition of biofilm formation in Staphylococcus aureus ATCC 29213 incubated for 24 hrs by crystalline violet staining based analysis; format: functional, organism-based; details: dose 0.125-64 µg/ml
L02 = test: Cytotoxicity against human L02 cells assessed as effect on cell morphology at 2.5 to 80 ug/ml incubated for 24 hrs by Hoechst 33342 and propidium iodide staining based fluorescence microscopic analysis; format: toxicity; details: l02, 24 h, dose 2.5-80 µg/ml
[16] = Binding affinity to methicillin-resistant Staphylococcus aureus 15 cardiolipin assessed as dissociation constant by ITC method
[17] = Binding affinity to methicillin-resistant Staphylococcus aureus 15 phosphatidylglycerol assessed as dissociation constant by ITC method
Staphylococcus aureus [18] = test: Downregulation of pgaC gene expression in methicillin-resistant Staphylococcus aureus 15 assessed as fold change in gene expression at 8 ug/ml incubated for 6 hrs by transcriptome analysis; format: functional; details: dose 8 µg/ml
Staphylococcus aureus [19] = test: Upregulation of rplJ gene expression in methicillin-resistant Staphylococcus aureus 15 assessed as log2 of fold change in gene expression at 8 ug/ml incubated for 6 hrs by transcriptome analysis; format: functional; details: dose 8 µg/ml
Staphylococcus aureus [20] = test: Upregulation of SPI gene expression in methicillin-resistant Staphylococcus aureus 15 assessed as log2 of fold change in gene expression at 8 ug/ml incubated for 6 hrs by transcriptome analysis; format: functional; details: dose 8 µg/ml
Staphylococcus aureus [21] = test: Upregulation of YidC gene expression in methicillin-resistant Staphylococcus aureus 15 assessed as log2 of fold change in gene expression at 8 ug/ml incubated for 6 hrs by transcriptome analysis; format: functional; details: dose 8 µg/ml

Structure (SMILES) | survival at 168 h [1] | selectivity ratio [2] | inhibition at 64 µg/mL (Staphylococcus aureus [3]) | Activity (Staphylococcus aureus [4]) | Activity [5] | MIC (Staphylococcus aureus [6]) | Activity (Staphylococcus aureus [7]) | inhibition at 64 µg/mL (Staphylococcus aureus [8]) | MIC (Escherichia coli) | Activity [9] | Stability [10] | Activity (Staphylococcus aureus [11]) | Activity [12] | Activity (Staphylococcus aureus [13]) | inhibition at 128 µg/mL (Staphylococcus aureus [14]) | MIC (Enterococcus faecalis) | MIC (Salmonella enterica) | inhibition (Staphylococcus aureus [15]) | Activity (L02) | other results
C=CCc1cccc(Oc2ccc(C(=O)CC)cc2)c1OCC[N+](C)(C)CC(=O)NCCCCCC.[Br-] | 100% | 556 | 100% | Active | Non-Toxic | 2 µg/mL | 100% | 100% | 8 µg/mL | Non-Toxic | Stable | Active | Non-Toxic | Active | > 80% | 2 µg/mL | 64 µg/mL | Dose-Dependent Effect | Non-Toxic | 
C=CCc1cccc(Oc2ccc(C(=O)CC)cc2)c1OCCC[N+](C)(C)CC(=O)NCCCCCC.[Br-] | 100% | 458 | 100% | Active | Non-Toxic | 2 µg/mL | 100% | 100% | 16 µg/mL | Non-Toxic | Stable | Active | Non-Toxic | Active | > 80% | 2 µg/mL | 32 µg/mL | Dose-Dependent Effect | Non-Toxic | Kd [16]: 1330 nM; Kd [17]: 3430 nM; log2FC (Staphylococcus aureus [18]): -2.8; log2FC (Staphylococcus aureus [19]): 1.8; log2FC (Staphylococcus aureus [20]): 1.96; log2FC (Staphylococcus aureus [21]): 1.27
